Assays:
[1] = test system: M17 human neuroblastoma cells; assay: Cytotoxicity, M17 human neuroblastoma cells; type: cell-based; details: for Cytotox (% viable) M17 cells at 1 μM: 1 μM test compound; for Cytotox (% viable) M17 cells at 10 μM: 10 μM test compound
Protocol: Assay 3. MTS Assay for Cell Viability
Cell viability is determined using the MTS assay. Culture medium is replaced with fresh neurobasal medium plus B27 supplements minus antioxidants. 1/10th volume MTS solution (Cell Titre 96 Aqueous One, Promega Corporation) and incubated at 37° C., 2 hrs. 200 microliter aliquots are measured with a spectrophotometer at 560 nm.

[2] = test system: primary cortical neuronal cultured cells; assay: Test compound cytotoxicity, MTS assay, primary cortical neuronal cultures; type: cell-based, mouse; details: for Cytotox (% viable) Neuronal cells at 1 μM: 1 μM test compound; for Cytotox (% viable) Neuronal cells at 10 μM: 10 μM test compound
Procedure, shortened: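 Primary cortical neurons were cultured five days in Neurobasal/B27, then exposed on day six to compounds (from 2.5 mM DMSO stocks) in medium minus antioxidants, in triplicate for 4 days at 37° C. Viability was measured by MTS, 2 h at 37° C, absorbance at 560 nm.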

Aβ 1-42 = target: T1, Aβ 1-42 (Homo sapiens, UniProt P05067); assay: Fluorometric H2O2 assay (inhibition of Abeta H2O2 production); type: biochemical; details: concentration required to inhibit 50% of Abeta H2O2 production; read-out: H2O2 IC50
T1 construct: The reaction solutions contained Aβ 1-42 at concentrations
T1 sequence (P05067 672-713 limits assumed): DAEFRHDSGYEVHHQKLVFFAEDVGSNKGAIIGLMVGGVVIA
Procedure, shortened: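 Reactions in PBS pH 7.4 at 37 C for 60 min, containing Aβ, copper and test compound. H2O2 output read as fluorescence of HRP-coupled deacetylated DCF. Fluorescence converted to H2O2 concentration via H2O2 standards.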

[3] = Mice plasma concentration after oral dose; type: in vivo; details: 30 min to 4 h after single or repeat oral dose of 30 mg/kg
[4] = Toxicity, visual observations in mice; details: 30 mg/kg; duration and visual observations
[5] = test system: dityrosine oligomerization; assay: CuTy: inhibition of dityrosine oligomerization; type: biochemical; details: referenced to in-house standard (set as 100% inhibition)
Aβ deposits = details: daily oral gavage 30 mg/kg, 9 weeks, 13-14 months old transgenic mice
[6] = target: T2, Abeta:Zn (25:50 μM) Synthetic Aggregations (Homo sapiens, UniProt P05067); assay: Disaggregation of Abeta:Zn synthetic aggregates (ThT fluorescence); type: biochemical; details: for Disaggregation % Aggregate reduction at 5 μM: 5 μM test compound; for EC50: Abeta:Zn 25:50 μM aggregates
T2 construct: PB Compound Mediated Dissolution of Aggregated Abeta 1-42; purchased Keck Laboratory, Yale University School of Medicine
T2 sequence (P05067 672-713 limits assumed): as above
Procedure, shortened: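 ThT signal (excitation 450 nm, emission 480 nm) measured after compounds at final 1, 5, 10, 25 and 50 μM acted 2 h at 37 degrees on preformed aggregates. Those aggregates came from 24 h rotating incubation of 25 μM Abeta1-42, 50 μM ZnCl2 and 50 μM ThT in PBS pH 6.6.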

| Compound | Cytotox (% viable) M17 cells at 1 μM [1] | Cytotox (% viable) M17 cells at 10 μM [1] | Cytotox (% viable) Neuronal cells at 1 μM [2] | Cytotox (% viable) Neuronal cells at 10 μM [2] | IC50 (Aβ 1-42) | Mice plasma concentration [3] | Toxicity at 30 mg/kg [4] | CuTy % inhibition of dityrosine oligomerization [5] | Tg Mice % difference from control in Amyloid plaque abundance (Aβ deposits) | Tg Mice % difference from control in insoluble brain amyloid burden (Aβ deposits) | Tg Mice % difference from control in soluble brain amyloid burden (Aβ deposits) | Disaggregation % Aggregate reduction at 5 μM [6] | EC50 [6] |
| --- | --- | --- | --- | --- | --- | --- | --- | --- | --- | --- | --- | --- | --- |
| O=C(O)CCCn1cnc2c(O)c(Cl)cc(Cl)c2c1=O [PB 1255] | 109.7% | 102.9% | 97.9% | 98.0% | 930 nM | Up to 17008 ng/ mL ng/mL | 10 days, none | CuTy: 125% inhibition | – | – | – | – | – |
| Cc1nc(Cn2cnc3c(O)c(Cl)cc(Cl)c3c2=O)cs1 [PB-1084] | 97% | 95.7% | 100% | 93% | – | Up to 2439 ng/ mL ng/mL | 10 days, none | CuTy: 75% inhibition | decrease | No change | −29% | 23.4% | 40700 nM |
| O=c1c2c(Cl)cc(Cl)c(O)c2ncn1Cc1nccs1 [PB 1254] | 106.6% | 106% | – | – | 250 nM | Up tp 441.4 ng/ mL ng/mL | 10 days, none | CuTy: 90% inhibition | – | – | – | – | – |
| O=c1c2c(Cl)cc(Cl)c(O)c2ncn1C1=CCC=C1 [PB 1244] | 125.7% | 114.8% | – | – | 1320 nM | Up to 1477.4 ng/mL | 10 days, none | CuTy: 10% inhibition | – | – | – | – | – |
| O=c1c2c(Cl)cc(Cl)c(O)c2ncn1-c1ccccn1 [PB 1242] | 102.7% | 102.6% | – | – | 280 nM | Up to 144.2 ng/ mL ng/mL | 10 days, none | CuTy: 50% inhibition | – | – | – | – | – |
| Cn1ccnc1Cn1cnc2c(O)c(Cl)cc(Cl)c2c1=O [PB 1243] | 112% | 122.3% | – | – | 380 nM | Up to 13214.8 ng/mL | 10 days, none | CuTy: 60% inhibition | – | – | – | – | – |
| CC(C)c1cnc2c(O)cccn2c1=O [PB 1135] | 99.7% | 45.6% | – | – | 270 nM | Up to 409 ng/ml ng/mL | 10 days, none | CuTy: 90% inhibition | – | – | – | 31% | > 20000 nM |
| O=c1c2c(Cl)cc(Cl)c(O)c2ncn1Cc1ccncc1 [PB 1241] | 105.4% | 90.4% | 98.4% | 90.9% | 440 nM | Up to 2181.1 ng/mL | 10 days, none | CuTy: 80% inhibition | – | – | – | – | – |
| O=c1c2c(Cl)cc(Cl)c(O)c2ncn1-c1ccc2[nH]ncc2c1 [PB 1246] | 104.3% | 73.5% | – | – | 310 nM | Up to 126 ng/ mL ng/mL | 10 days, none | CuTy: 120% inhibition | – | – | – | – | – |
| Br.CNCc1nc2c(O)c(Cl)cc(Cl)c2c(=O)n1C [PB 1161] | 101.4% | 112.5% | 105.4% | 103.9% | – | Up to 510.4 ng/mL | 10 days, none | 100% inhib | −64% | No change | No change | 27% | > 20000 nM |
| O=c1c2c(Cl)cc(Cl)c(O)c2ncn1Cc1ccccn1 [PB-1077] | 97.7% | 91% | 99% | 98% | – | Up to 984 ng/ mL in mice ng/mL | 10 days, none | CuTy: 50% inhibition | −30% | No change | No change | 24% | > 20000 nM |
| Cc1noc(C)c1Cn1cnc2c(O)c(Cl)cc(Cl)c2c1=O [PB-1085] | 104.9% | 76.2% | 99% | 72% | – | Up to 3644 ng/ mL ng/mL | 10 days, none | CuTy: 90% inhibition | −43% | −34% | increase | 25% | > 20000 nM |
| O=c1c2c(Cl)cc(Cl)c(O)c2ncn1CC1CC1 [PB-1076] | 96.2% | 76.8% | 116% | 105% | – | Up to 2698 ng/ mL in mice ng/mL | 11 days, none | 100% inhibit | −29% | −26% | −37% | 15.1% | > 20000 nM |
| Br.CN1CCCC1Cn1cnc2c(O)c(Cl)cc(Cl)c2c1=O (stereo not shown) [PB 1253] | 106.6% | 93.9% | – | – | 430 nM | Up to 382.5 ng/ mL ng/mL | 10 days, none | CuTy: 70% inhibition | – | – | – | – | – |
| O=c1c2c(Cl)cc(Cl)c(O)c2ncn1Cc1cccnc1 [PB 1240] | 106.4% | 100.2% | – | – | 320 nM | Up to 4023.4 ng/mL | 10 days, none | CuTy: 60% inhibition | – | – | – | – | – |
| O=c1c2c(Cl)cc(Cl)c(O)c2ncn1Cc1ccn2ccnc2c1 [PB 1252] | 105.4% | 105.1% | 94.6% | 103.1% | 720 nM | Up to 1465.4 ng/mL | 10 days, none | CuTy: 50% inhibition | – | – | – | – | – |
| Cn1nccc1-n1cnc2c(O)c(Cl)cc(Cl)c2c1=O [PB 1262] | 106.5% | 94.2% | 104.6% | 83.7% | 940 nM | Up to 7107 ng/ mL ng/mL | 10 days, none (16/11/05) | CuTy No effect | – | – | – | – | – |
| O=C(O)Cn1cnc2c(O)c(Cl)cc(Cl)c2c1=O [PB 1249] | 105% | 100.7% | – | – | 490 nM | Up to 4830.2 ng/ml ng/mL | 10 days, none | CuTy: 100% inhibition | – | – | – | – | – |
| O=c1c2c(Cl)cc(Cl)c(O)c2ncn1Cc1cn2ccccc2n1 [PB 1239] | 109.2% | 98.2% | – | – | 480 nM | Up to 98.3 ng/ mL ng/mL | 10 days, none | CuTy: 50% inhibition | – | – | – | – | – |
| CN(C)Cc1nc2c(O)c(Cl)cc(Cl)c2c(=O)n1CC1CC1.Cl [PB 1267] | 94.4% | 74.5% | – | – | 370 nM | Up to 1166.6 ng/ml ng/mL | 10 days, none | CuTy: 110% inhibition | – | – | – | – | – |

Source: patent publication US9163018B2, “Method of treatment of age-related macular degeneration (AMD)” (Prana Biotechnology Limited, priority 2006, dated 2015)
